The subject of one data set is human MRC-5 cells. Nature of the data set: Non-specific toxicity control on human MRC-5 cells. The data set is classed as cell-based.
For the next data set, the system named is P. falciparum. Nature of the data set: Antimalarial screening against asexual blood stage P. falciparum. Type of data set: cell-based, Plasmodium falciparum. The note with it: for P. fal pIC50 / IC50: potency against asexual blood stage of P. falciparum, average values n ≥ 2, s.d. < 0.3; for fold potency decrease compared with 30: relative to 30; for IC50: Plasmodium falciparum, read-out: P. fal pIC50 (converted). The method, then:
Previously, Howard et al. reported (sub)micromolar activity against P. falciparum for a series of BIPPO analogs with benzyl substituents. To further understand the structure–activity relationship (SAR) of this interesting scaffold, close analogs of 3 with substituents at R^1–R^4 positions were tested against P. falciparum and human MRC-5 cells as the control for non-specific toxicity (Table 1).
The assay for antimalarial activity was carried out as described in detail in Pereira et al..

Data set [1] can be described thus: Non-specific toxicity control on human MRC-5 cells. The data set is classed as cell-based. The following applies: human MRC-5 cells; average values n ≥ 2, s.d. < 0.3; read-out: MRC-5 pIC50 (converted).
Data set [2] can be described thus: Metabolic stability in mouse liver microsomes (S9 fraction). Type of data set: in vitro ADME. The following applies: for parent compound left: one hour of incubation; for metabolic stability relative to diclofenac: mouse Phase I assay. On the procedure:
(§1) Thus, compounds 23, 28–30, 47a and 47b with high potencies (pIC50 > 6) were evaluated for their in vitro metabolic stability in human and mouse liver microsomes (S9 fraction) with diclofenac as a reference compound. As summarized in Figure 2, substituents in the R^4 position affect metabolic stability. […] Their stability against mouse liver microsomes is lower, especially for their Phase I metabolism; only 38% and 26% of the parent compounds are left for 23 and 29 after one hour of incubation. […] For the adamantanyl analogs 30, 47a and 47b, metabolic stability differs drastically, with Phase I identified as the main metabolic pathway. Analog 47b was metabolized for >95% within 30 min with mouse liver microsomes, while 90% of 47a (tert-butyl analog) was left after one hour of incubation.
(§2) The assay for metabolic stability in human and mouse liver microsomal fractions (S9) was performed as described.
(Microsomes from liver hold many membrane-bound enzymes, among them those of drug oxidation.)

Data set [3] in a line: Metabolic stability in human liver microsomes (S9 fraction). The data set is classed as in vitro ADME. The note with it: one hour incubation, Phase I and Phase II metabolism. The method, then:
as §1, §2

[4] abbreviates: mouse liver microsomes, phase not given.
Setting [5] is: mouse liver microsomes, Phase I metabolism.

With “5-(Benzyloxy)-3-isopropyl-1,6-dihydro-7H-pyrazolo[4,3-d]pyrimidin-7-one [compound 5]”, the “MRC-5 pIC50” value in the data set on human MRC-5 cells (human MRC-5 cells, average values n ≥ 2, s.d. < 0.3) was less than 4.2. In the data set with P. falciparum (P. falciparum, relative to 3), the “fold decreased antimalarial potency compared to 3” value is 5- to 25 fold. In addition, the “P. fal pIC50” value in the data set with P. falciparum stood at 5.2.

Turning to `CC(C)(C)c1n[nH]c2c(=O)[nH]c(C34CC5CC(CC(C5)C3)C4)nc12` [47a, 5-(Adamantan-1-yl)-3-(tert-butyl)-1,6-dihydro-7H-pyrazolo[4,3-d]pyrimidin-7-one], in data set [1], the IC50 is more than 63.1 µM. For the same compound, the “metabolic stability in mouse liver microsomes (in words)” value (“metabolic stability … (in words)” for short) in data set [2] (mouse liver microsomes) is “favorable metabolic stability”. In data set [2] (setting [4]), the parent compound left is reported as 90%. In addition, the “fold potency decrease compared with 30” value in the data set on P. falciparum (P. falciparum) is given as 4 fold.

`O=c1[nH]c(C23CC4CC(CC(C4)C2)C3)nc2c(C3CCCC3)n[nH]c12` [47b, 5-(Adamantan-1-yl)-3-cyclopentyl-1,6-dihydro-7H-pyrazolo[4,3-d]pyrimidin-7-one]: the IC50 in data set [1] was more than 63.1 µM. Also, the “metabolic stability relative to diclofenac” value in data set [2] is on record as “metabolized faster than diclofenac”. Further, the metabolized in data set [2] (mouse liver microsomes, within 30 min) is listed as more than 95%. Also, the “fold potency decrease compared with 30” value with P. falciparum (P. falciparum) is 2.5 fold. For the same compound, in the data set with P. falciparum, the IC50 was less than 1 µM and the “P. fal pIC50” value is given as 6.2.

Regarding `CC(C)c1n[nH]c2c(=O)[nH]c(C3CCCCC3)nc12` [compound 23, 5-Cyclohexyl-3-isopropyl-1,6-dihydro-7H-pyrazolo[4,3-d]pyrimidin-7-one], the IC50 in data set [1] was more than 63.1 µM. In addition, the “metabolic stability relative to diclofenac” value in data set [2] is “metabolized faster than diclofenac”. In data set [2] (mouse liver microsomes), the “metabolic stability … (in words)” value is “favorable metabolic stability”. In data set [2] (setting [5]), the parent compound left came out at 38%. Also, the “fold potency increase compared with 3” value with P. falciparum (P. falciparum, relative to 3) is listed as “five”. The parent compound remaining result in data set [3] is recorded as “more than 50%”.

`CC(C)c1n[nH]c2c(=O)[nH]c(C3CCC(F)(F)CC3)nc12` [compound 28, 5-(4,4-Difluorocyclohexyl)-3-isopropyl-1,6-dihydro-7H-pyrazolo[4,3-d]pyrimidin-7-one]: the IC50 in data set [1] was more than 63.1 µM; with P. falciparum it was less than 1 µM. Further, the “metabolic stability … (in words)” value in data set [2] (mouse liver microsomes) was “favorable metabolic stability”. Further, the parent compound left in data set [2] (setting [4]) turned out to be 68%. Further, in the data set with P. falciparum, the “P. fal pIC50” value is on record as 6.0. For the same compound, the parent compound remaining entry in data set [3] is recorded as “more than 50%”.

Take `CC(C)c1n[nH]c2c(=O)[nH]c(C34CCC(CC3)CC4)nc12` [compound 29, 5-(Bicyclo[2.2.2]octan-1-yl)-3-isopropyl-1,6-dihydro-7H-pyrazolo[4,3-d]pyrimidin-7-one]: in data set [1], the IC50 was more than 63.1 µM. Also, in data set [2], the “metabolic stability relative to diclofenac” value was “metabolized faster than diclofenac”. In data set [2] (mouse liver microsomes), the “metabolic stability … (in words)” value was “favorable metabolic stability”. Besides, in data set [2] (setting [5]), the parent compound left was 26%. Further, in data set [3], the parent compound remaining entry was “more than 50%”.

Take `CC(C)c1n[nH]c2c(=O)[nH]c(C34CC5CC(CC(C5)C3)C4)nc12` [compound 30, 5-(Adamantan-1-yl)-3-isopropyl-1,6-dihydro-7H-pyrazolo[4,3-d]pyrimidin-7-one]: the “toxicity for human MCR-5 cells (in words)” value in the data set on human MRC-5 cells was “without showing noticeable toxicity”. The IC50 in data set [1] is more than 63.1 µM. Further, the “metabolic stability relative to diclofenac” value in data set [2] is on record as “metabolized faster than diclofenac”. Further, the “fold potency increase compared with 3” value in the data set on P. falciparum (P. falciparum, relative to 3) is given as “eight”.

These data come from article PMC10343887, “Structural Optimization of BIPPO Analogs as Potent Antimalarials” (Molecules, 2023).
